Measured values published in patent US20070003672A1, “Tri-part calcium fortified compositions and methods of making the same” (priority 2005, published 2007).
Values joined by “and” are separate entries in the source; they are usually repeats but may differ in a detail not shown here. Equal entries are not always repeated.

Experiment: Physical/chemical attributes (calcium, pH, titratable acidity, Brix, Brix/Acid ratio) of calcium fortified orange juice
Format: physicochemical
Parameters: unit not given here
Settings: orange juice fortified at 450 mg/100 mL calcium load
Text: The flavor of orange juice, for example, can be characterized by a unique balance of sweetness resulting from the sugar content and tartness resulting from the acid content. A challenge of fortifying orange juice with nutritionally significant amounts of calcium is maintaining the sweet to tart balance. This balance can be expressed analytically as the Brix to acid ratio, as described above. The Brix component of the ratio is the measure of soluble solids in the beverage often determined by a refractometer. The acid component can be determined by titration with a base such as sodium hydroxide. The Brix to acid ratio is an analytical representation or measure of the sweet to tart taste balance.
A variety of calcium salts, i.e., the calcium components, were evaluated to determine their effects on the Brix-acid ratio. In this evaluation, orange juices fortified with different calcium salts were prepared at 450 mg/100 mL of calcium load. […]
Orange juices fortified with various combinations of calcium salts, i.e. calcium components, were evaluated based on physical/chemical attributes compared to unfortified orange juice.

Compound | Calcium - Juice (48 Hours) | Calcium - Juice (48 Hours) (citrate)
O=C([O-])[O-].[Ca+2] [calcium carbonate] | 200 | –
calcium ascorbate dihydrate | 195 | –
N[C@@H](CCC(=O)[O-])C(=O)[O-].O.O.O.O.[Ca+2] [calcium L-glutamate tetrahydrate] | 207 | –
O.O.O=C([O-])[C@H](O)[C@@H](O)C(=O)[O-].[Ca+2] [calcium L-tartrate dihydrate] | 140 | –
O=P([O-])([O-])[O-].O=P([O-])([O-])[O-].[Ca+2].[Ca+2].[Ca+2] [tricalcium phosphate] | 182 | –
CC(O)C(=O)O.O=C(O)[C@H](O)[C@@H](O)[C@H](O)[C@H](O)CO.O=C([O-])CC(O)(CC(=O)[O-])C(=O)O.[Ca+2] [calcium lactate gluconate citrate] | – | 200 and 202
O.O=P([O-])([O-])OCC(O)CO.[Ca+2] (stereo not shown) [calcium glycerophosphate monohydrate] | 187 | –
O=P([O-])([O-])[O-].O=P([O-])([O-])[O-].[Ca+2].[Ca+2].[Ca+2] [tricalcium phosphate (fine), tricalcium phosphate] | 197 | –
calcium gluconate monohydrate | 198 | –
O.O.O=P([O-])([O-])O.[Ca+2] [dicalcium phosphate dihydrate] | 181 | –
O.O.[Ca+2].[Cl-].[Cl-] [calcium chloride dihydrate] | 206 | –
O.O=C([O-])CCC(=O)[O-].[Ca+2] [calcium succinate monohydrate] | 206 | –
O=C[O-].O=C[O-].[Ca+2] [calcium formate] | 206 | –
O.O=P([O-])(O)O.O=P([O-])(O)O.[Ca+2] [monocalcium phosphate monohydrate] | 207 | –
O.O.O.O=C([O-])/C=C/C(=O)[O-].[Ca+2] [calcium fumarate trihydrate] | 202 | –
O=C([O-])CC(O)(CC(=O)[O-])C(=O)[O-].O=C([O-])CC(O)(CC(=O)[O-])C(=O)[O-].[Ca+2].[Ca+2].[Ca+2] [tri-calcium citrate] | 177 | –
CC(O)C(=O)[O-].CC(O)C(=O)[O-].O.O.O.O.O.[Ca+2] (stereo not shown) [calcium lactate pentahydrate] | 204 | –
O=C([O-])CC(O)C(=O)[O-].[Ca+2] (stereo not shown) [calcium malate] | 213 | –
O=P([O-])([O-])O.[Ca+2] [dicalcium phosphate anhydrous] | 203 | –
